From BindingDB's records for doi:10.1021/jm100157m (University of Arizona, 2010)

Test: Agonist activity at mu opioid receptor in guinea pig ileum assessed as inhibition of electrically-stimulated muscle contraction

## CSCC[C@H](NC(=O)[C@H](Cc1ccccc1)NC(=O)CNC(=O)[C@@H](C)NC(=O)[C@@H](N)Cc1ccc(O)cc1)C(=O)N1CCC[C@H]1C(=O)N[C@@H](CC(C)C)C(=O)N[C@@H](Cc1c[nH]c2ccccc12)C(=O)NCc1cc(C(F)(F)F)cc(C(F)(F)F)c1 [Tyr-D-Ala-Gly-Phe-Met-Pro-Leu-Trp-NH-3,5-Bzl(CF 3) 2]
  IC50: 420 nM
